The results in this text go back to patent US20240050577A1, “CDK INHIBITORS AND PHARMACEUTICAL USES THEREOF” (RISEN (SUZHOU) PHARMA TECH CO., LTD., priority 2022, published 2024).

This experiment relates to OVCAR3 cells. Kind of experiment: Cell proliferation study (Cell Titer Glo, 72 h). It counts as cell-based. The note with it: Homo sapiens, OVCAR-3, luminescence, read-out: IC50, inhibitory effect on cellular proliferation. On the procedure: OVCAR3 (Cobioer, CBP60294) cell line in logarithmic growth phase was used for these experiments. The cell density was adjusted to 1.1×10^4/mL and the cells were inoculated into a 96-well cell culture plate (Corning, 3599), 95 μL per well (the number of cells per well was 1×10^3). The culture plate was placed in an incubator, with 5% carbon dioxide, at 37° C. and incubated overnight. On the next day, a 10 mM stock solution of test compound was prepared in DMSO (Sigma, RNBF5902). After gradient dilution, a series of working solutions with different concentrations of test compound was prepared using complete medium. Working solution was added into the corresponding wells of the orifice plate, and the plate was placed in a 5% carbon dioxide incubator and cultivated at 37° C. for 72 h, and then removed from the incubator. To each well was added 50 μL Cell Tier Glo (Promega, G7573), and the plate was incubated at room temperature for 10 min, followed by luminescence detection with an enzyme marker. The inhibition curve was obtained with GraphPad 7.0 software using four-parameter equation.
In general terms: In ATP-based viability assays light output follows the ATP content of the culture.

Structures are written as SMILES. Where only a bound is given, the exact number is not on record here.

On to `Cc1nc2c(F)cc(-c3nc(NC4CCN(S(=O)(=O)C5CCN(C(=O)C6CCN(c7cc8c(cc7F)C(=O)N(C7CCC(=O)NC7=O)C8=O)CC6)CC5)CC4)ncc3F)cc2n1C(C)C` (stereo not drawn) [Compound 74], for which the IC50 was in the range of 1000 to 5000 nM.
As for `Cc1nc2c(F)cc(-c3nc(Nc4ccc(S(=O)(=O)NCCOCCOCCOCCNc5cccc6c5C(=O)N(C5CCC(=O)NC5=O)C6=O)cc4)ncc3F)cc2n1C(C)C` (stereo not drawn) [Compound 48], the figure is 1000 to 5000 nM.
As for `C[C@@]1(O)CCC[C@H]1n1c(=O)ccc2cnc(Nc3ccc(S(=O)(=O)C4CCN(C5CC6(C5)CN(c5cc7c(cc5F)C(=O)N(C5CCC(=O)NC5=O)C7=O)C6)CC4)cc3)nc21` (stereo partly drawn) [Compound 76], the figure is more than 10000 nM; as for `Cc1nc2c(F)cc(-c3nc(Nc4ccc(S(=O)(=O)N5CCN(CC6CCN(c7ccc8c(c7)C(=O)N(C7CCC(=O)NC7=O)C8=O)CC6)CC5)cc4)ncc3F)cc2n1C(C)C` (stereo not drawn) [Compound 68], 101 to 1000 nM; as for `CC(C)N1CCOc2c(F)cc(-c3nc(Nc4ccc(C5CCN(CCOCCOCCNc6cccc7c6C(=O)N(C6CCC(=O)NC6=O)C7=O)CC5)cn4)ncc3F)cc21` (stereo not drawn) [Compound 2], more than 10000 nM.
As for `Cc1nc2c(F)cc(-c3nc(Nc4ccc(S(=O)(=O)NCCOCc5cn(CCOCCOCCNc6cccc7c6C(=O)N(C6CCC(=O)NC6=O)C7=O)nn5)cc4)ncc3F)cc2n1C(C)C` (stereo not drawn) [Compound 50], the figure is 1000 to 5000 nM; as for `C[C@@]1(O)CCC[C@H]1n1c(=O)c(C(F)F)cc2cnc(NC3CCN(S(=O)(=O)C4CCN(C5CC6(CCN(c7cc8c(cc7F)C(=O)N(C7CCC(=O)NC7=O)C8=O)CC6)C5)CC4)CC3)nc21` (stereo partly drawn) [Compound 35], 101 to 1000 nM.
As for `C[C@@]1(O)CCC[C@H]1n1c(=O)c(Cl)cc2cnc(NC3CCN(S(=O)(=O)C4CCN(C5CC6(CCN(c7cc8c(cc7F)C(=O)N(C7CCC(=O)NC7=O)C8=O)CC6)C5)CC4)CC3)nc21` (stereo partly drawn) [Compound 34], the IC50 was more than 10000 nM.
Consider `C[C@@]1(O)CCC[C@H]1n1c(=O)ccc2cnc(Nc3ccc(S(=O)(=O)C4CCN(C5CCC6(CC5)CN(c5cc7c(cc5F)C(=O)N(C5CCC(=O)NC5=O)C7=O)C6)CC4)cc3)nc21` (stereo partly drawn) [Compound 45], for which the IC50 was more than 10000 nM.
As for `CC(C)N1CCOc2c(F)cc(-c3nc(Nc4ccc(S(=O)(=O)N5CCN(CC6CCN(c7ccc8c(c7)C(=O)N(C7CCC(=O)NC7=O)C8=O)CC6)CC5)cc4)ncc3F)cc21` (stereo not drawn) [Compound 33], the figure is more than 10000 nM; as for `CC(C)N1CCOc2c(F)cc(-c3nc(Nc4ccc(S(=O)(=O)N5CCN(C6CCN(C7CN(c8cccc9c8C(=O)N(C8CCC(=O)NC8=O)C9=O)C7)CC6)CC5)cc4)ncc3F)cc21` (stereo not drawn) [Compound 55], more than 10000 nM; as for `CC(C)N1CCOc2c(F)cc(-c3nc(Nc4ccc(C5CCN(C6CC7(CCN(c8cc9c(cc8F)C(=O)N(C8CCC(=O)NC8=O)C9=O)CC7)C6)CC5)cn4)ncc3F)cc21` (stereo not drawn) [Compound 18, 2-(2,6-dioxo-3-piperidyl)-5-fluoro-6-[2-[4-[6-[[5-fluoro-4-(8-fluoro-4-isopropyl-2,3-dihydro-1,4-benzoxazin-6-yl)pyrimidin-2-yl]amino]-3-pyridyl]-1-piperidyl]-7-azaspiro[3.5]nonan-7-yl]isoindoline-1,3-dione], more than 10000 nM.
With `Cc1nc2c(F)cc(-c3nc(NC4CCN(S(=O)(=O)C5CCN(C6CC7(CCN(c8cc9c(cc8F)C(=O)N(C8CCC(=O)NC8=O)C9=O)CC7)C6)CC5)CC4)ncc3F)cc2n1C(C)C` (stereo not drawn) [Compound 75], the IC50 lay in the range of 1000 to 5000 nM.
Take `C[C@@]1(O)CCC[C@H]1n1c(=O)ccc2cnc(NC3CCN(S(=O)(=O)C4CCN(C5CC6(C5)CN(C(=O)C5CCN(c7cc8c(cc7F)C(=O)N(C7CCC(=O)NC7=O)C8=O)CC5)C6)CC4)CC3)nc21` (stereo partly drawn) [Compound 85]: the IC50 was in the range of 1000 to 5000 nM.
As for `Cc1nc2c(F)cc(-c3nc(Nc4ccc(S(=O)(=O)N5CCC6(CCN(CC7CCN(c8cc9c(cc8F)C(=O)N(C8CCC(=O)NC8=O)C9=O)CC7)CC6)CC5)cc4)ncc3F)cc2n1C(C)C` (stereo not drawn) [Compound 106], the figure is 1000 to 5000 nM.
As for `CC(C)N1CCOc2c(F)cc(-c3nc(Nc4ccc(C5CCN(CCOCCOCCOCCNc6cccc7c6C(=O)N(C6CCC(=O)NC6=O)C7=O)CC5)cn4)ncc3F)cc21` (stereo not drawn) [Compound 6], the figure is 1000 to 5000 nM.
Turning to `CC(C)N1CCOc2c(F)cc(-c3nc(Nc4ccc(C5CCN(C(=O)CCCCCCCCOc6cccc7c6C(=O)N(C6CCC(=O)NC6=O)C7=O)CC5)cn4)ncc3F)cc21` (stereo not drawn) [Compound 7], the IC50 was more than 10000 nM.
As for `Cc1nc2c(F)cc(-c3nc(NC4CCN(S(=O)(=O)C5CCN(CCC6CCN(c7cc8c(cc7F)C(=O)N(C7CCC(=O)NC7=O)C8=O)CC6)CC5)CC4)ncc3F)cc2n1C(C)C` (stereo not drawn) [Compound 104], the figure is 101 to 1000 nM; as for `Cc1nc2c(F)cc(-c3nc(Nc4ccc(S(=O)(=O)N5CC(C(=O)N6CCC7(CC6)CCN(c6cccc8c6C(=O)N(C6CCC(=O)NC6=O)C8=O)CC7)C5)cc4)ncc3F)cc2n1C(C)C` (stereo not drawn) [Compound 40], more than 10000 nM; as for `Cc1nc2c(F)cc(-c3nc(NC4CCN(S(=O)(=O)C5CCN(CC6CC(N7CCC(c8cccc(C9CCC(=O)NC9=O)c8)CC7)C6)CC5)CC4)ncc3F)cc2n1C(C)C` (stereo not drawn) [Compound 102], 101 to 1000 nM.
For `Cc1nc2c(F)cc(-c3nc(Nc4ccc(S(=O)(=O)C5CCN(CC6CCN(c7cc8c(cc7F)C(=O)N(C7CCC(=O)NC7=O)C8=O)CC6)CC5)cc4)ncc3F)cc2n1C(C)C` (stereo not drawn) [Compound 110], the IC50 was 101 to 1000 nM.
As for `C[C@@]1(O)CCC[C@H]1n1c(=O)ccc2cnc(Nc3ccc(S(=O)(=O)C4CCN(CC5CCN(c6cccc7c6C(=O)N(C6CCC(=O)NC6=O)C7=O)CC5)CC4)cc3)nc21` (stereo partly drawn) [Compound 44], the figure is more than 10000 nM; as for `C[C@@]1(O)CCC[C@H]1n1c(=O)ccc2cnc(NC3CCN(S(=O)(=O)NCCOCc4cn(CCOCCOCCNc5cccc6c5C(=O)N(C5CCC(=O)NC5=O)C6=O)nn4)CC3)nc21` (stereo partly drawn) [Compound 91], 1000 to 5000 nM.
As for `Cc1nc2c(F)cc(-c3nc(NC4CCN(S(=O)(=O)C5CCN(CC6CCC7(CC6)CN(c6cc8c(cc6F)C(=O)N(C6CCC(=O)NC6=O)C8=O)C7)CC5)CC4)ncc3F)cc2n1C(C)C` (stereo not drawn) [Compound 97], the figure is 101 to 1000 nM; as for `C[C@@]1(O)CCC[C@H]1n1c(=O)ccc2cnc(Nc3ccc(S(=O)(=O)N4CCC5(CCN(C6CN(c7cc8c(cc7F)C(=O)N(C7CCC(=O)NC7=O)C8=O)C6)CC5)CC4)cc3)nc21` (stereo partly drawn) [Compound 58], 1000 to 5000 nM.
As for `Cc1nc2c(F)cc(-c3nc(NC4CCN(S(=O)(=O)C5CN(CC6CN(c7cc8c(cc7F)C(=O)N(C7CCC(=O)NC7=O)C8=O)C6)C5)CC4)ncc3F)cc2n1C(C)C` (stereo not drawn) [Compound 109], the figure is 1000 to 5000 nM; as for `C[C@@]1(O)CCC[C@H]1n1c(=O)ccc2cnc(Nc3ccc(S(=O)(=O)C4CCN(C5CN(C6CCN(c7cc8c(cc7F)C(=O)N(C7CCC(=O)NC7=O)C8=O)CC6)C5)CC4)cc3)nc21` (stereo partly drawn) [Compound 59], 1000 to 5000 nM; as for `CC(C)N1CCOc2c(F)cc(-c3nc(Nc4ccc(S(=O)(=O)N5CCN(CC6CCN(c7cccc8c7C(=O)N(C7CCC(=O)NC7=O)C8=O)CC6)CC5)cc4)ncc3F)cc21` (stereo not drawn) [Compound 54], more than 10000 nM.
Consider `Cc1nc2c(F)cc(-c3nc(Nc4ccc(S(=O)(=O)NCCOCCOCCNc5cc6c(cc5F)C(=O)N(C5CCC(=O)NC5=O)C6=O)cc4)ncc3F)cc2n1C(C)C` (stereo not drawn) [Compound 69], for which the IC50 lay in the range of 1000 to 5000 nM.
As for `C[C@@]1(O)CCC[C@H]1n1c(=O)ccc2cnc(NC3CCN(S(=O)(=O)C4CCN(C(=O)C56CC(NCC7CCN(c8cc9c(cc8F)C(=O)N(C8CCC(=O)NC8=O)C9=O)CC7)(C5)C6)CC4)CC3)nc21` (stereo partly drawn) [Compound 36], the figure is 101 to 1000 nM; as for `Cc1nc2c(F)cc(-c3nc(NC4CCN(S(=O)(=O)C5CCN(CC6CCN(c7cc8c(cc7F)C(=O)N(C7CCC(=O)NC7=O)C8=O)CC6)CC5)CC4)ncc3F)cc2n1C(C)C` (stereo not drawn) [Compound 71], less than 100 nM.
As for `CC(C)N1CCOc2c(F)cc(-c3nc(NC4CCN(S(=O)(=O)C5CCN(C6CC7(CCN(c8cc9c(cc8F)C(=O)N(C8CCC(=O)NC8=O)C9=O)CC7)C6)CC5)CC4)ncc3F)cc21` (stereo not drawn) [Compound 51], the figure is more than 10000 nM; as for `Cc1nc2c(F)cc(-c3nc(Nc4ccc(S(=O)(=O)N5CCN(CC6CCN(c7cccc8c7C(=O)N(C7CCC(=O)NC7=O)C8=O)CC6)CC5)cc4)ncc3F)cc2n1C(C)C` (stereo not drawn) [Compound 57], 101 to 1000 nM.
For `Cc1nc2c(F)cc(-c3nc(Nc4ccc(NS(=O)(=O)CCNC(=O)CO[C@@H]5C[C@H](C)CC[C@H]5C(C)C)cc4)ncc3F)cc2n1C(C)C` (racemic) [Compound 26], the IC50 fell in the range of 1000 to 5000 nM.
As for `Cc1ccsc1C(=O)n1nc(Nc2ccc(S(=O)(=O)NCCOCc3cn(CCOCCOCCNc4cccc5c4C(=O)N(C4CCC(=O)NC4=O)C5=O)nn3)cc2)nc1N` (stereo not drawn) [Compound 32], the figure is more than 10000 nM.
As for `Cc1nc2c(F)cc(-c3nc(Nc4ccc(S(=O)(=O)N5CCC6(CCN(C(=O)CNc7cc8c(cc7F)C(=O)N(C7CCC(=O)NC7=O)C8=O)CC6)CC5)cc4)ncc3F)cc2n1C(C)C` (stereo not drawn) [Compound 105], the figure is 101 to 1000 nM; as for `C[C@@]1(O)CCC[C@H]1n1c(=O)ccc2cnc(NC3CCN(S(=O)(=O)C4CCN(C5CC6(CCN(c7cccc8c7C(=O)N(C7CCC(=O)NC7=O)C8=O)CC6)C5)CC4)CC3)nc21` (stereo partly drawn) [Compound 107], 101 to 1000 nM.
As for `C[C@@]1(O)CCC[C@H]1n1c(=O)ccc2cnc(NC3CCN(S(=O)(=O)C4CCN(C5CCC6(CC5)CCN(c5cc7c(cc5F)C(=O)N(C5CCC(=O)NC5=O)C7=O)CC6)CC4)CC3)nc21` (stereo partly drawn) [Compound 89], the figure is 101 to 1000 nM.
For `CC(C)[C@@H]1CC[C@@H](C)C[C@H]1OCC(=O)NCCS(=O)(=O)N1CCC(Nc2ncc(F)c(-c3cc(F)c4c(c3)N(C(C)C)CCO4)n2)CC1` [Compound 27], the IC50 is more than 10000 nM.
